The record followed here is ChEMBL document CHEMBL2331174, “Inhibition of notch pathway signaling: a one compound mission to treat cancer” (ACS Med Chem Lett, 2013).

In general, IC50 refers to the midpoint of a concentration-inhibition curve.

A short description of assay [1]: Inhibition of gamma-secretase mediated cleavage of Notch 1 in human BxPC3 cells assessed as nuclear accumulation of Notch 1 intracellular domain (N1ICD) after 24 hrs by ELISA. It is filed as cell-based. The conditions noted are these: BXPC-3, 24 h. (In general: An ELISA detects its analyte on a solid surface through an enzyme-linked reagent.)
The nature of assay [2]: Inhibition of gamma-secretase mediated cleavage of Notch 1 in human CCRF-CEM cells assessed as nuclear accumulation of Notch 1 intracellular domain (N1ICD) after 24 hrs by ELISA. It is filed as cell-based.
Assay [3] in a line: Inhibition of gamma-secretase mediated cleavage of Notch 1 in human A375 cells assessed as nuclear accumulation of Notch 1 intracellular domain (N1ICD) after 24 hrs by ELISA. It is filed as cell-based. The conditions noted are these: A-375, 24 h.
Assay [4] in a line: Inhibition of gamma-secretase mediated cleavage of Notch 1 in human MOLT-4 cells assessed as nuclear accumulation of Notch 1 intracellular domain (N1ICD) after 24 hrs by ELISA. To be noted: MOLT-4, 24 h. It is filed as cell-based.
Assay [5] can be described thus: Inhibition of gamma-secretase mediated cleavage of Notch 1 in human HEL 92.1.7 cells assessed as nuclear accumulation of Notch 1 intracellular domain (N1ICD) after 24 hrs by ELISA. It is filed as cell-based. The conditions noted are these: HEL 92.1.7, 24 h.
Assay [6] in a line: Inhibition of gamma-secretase mediated cleavage of Notch 1 in human MIAPaCa2 cells assessed as nuclear accumulation of Notch 1 intracellular domain (N1ICD) after 24 hrs by ELISA. It is filed as cell-based. To be noted: MIA PaCa-2, 24 h.
Assay [7] in a line: Inhibition of gamma-secretase mediated cleavage of transfected mouse Notch 1 (1703-2183) harboring N-terminal 23 aminoacid signal peptide sequence in human HEK293deltaE12 cells assessed as nuclear accumulation of Notch 1 intracellular domain (N1ICD) after 24 hrs by fluorescence cellular imaging analysis. It is filed as cell-based.
A short description of assay [8]: Inhibition of gamma-secretase mediated cleavage of Notch 1 in human MOLT-3 cells assessed as nuclear accumulation of Notch 1 intracellular domain (N1ICD) after 24 hrs by ELISA. It is filed as cell-based. To be noted: MOLT-3, 24 h.
Assay [9] can be described thus: Inhibition of gamma-secretase mediated cleavage of Notch 1 in human MDA-MB-231 cells assessed as nuclear accumulation of Notch 1 intracellular domain (N1ICD) after 24 hrs by ELISA. It is filed as cell-based. The conditions noted are these: MDA-MB-231, 24 h.
The nature of assay [10]: Inhibition of gamma-secretase mediated cleavage of Notch 1 in human SW480 cells assessed as nuclear accumulation of Notch 1 intracellular domain (N1ICD) after 24 hrs by ELISA. It is filed as cell-based. The conditions noted are these: SW480, 24 h.
A short description of assay [11]: Inhibition of gamma-secretase mediated cleavage of Notch 1 in human HCT 116 cells assessed as nuclear accumulation of Notch 1 intracellular domain (N1ICD) after 24 hrs by ELISA. It is filed as cell-based. To be noted: HCT-116, 24 h.
Assay [12] in a line: Inhibition of gamma-secretase mediated cleavage of Notch 1 in human U-87-MG cells assessed as nuclear accumulation of Notch 1 intracellular domain (N1ICD) after 24 hrs by ELISA. It is filed as cell-based, U-87MG ATCC.
Assay [13] is described as follows: Inhibition of gamma-secretase mediated cleavage of Notch 1 in human Jurkat cells assessed as nuclear accumulation of Notch 1 intracellular domain (N1ICD) after 24 hrs by ELISA. It is filed as cell-based.
A short description of assay [14]: Inhibition of gamma-secretase mediated cleavage of Notch 1 in human A2780 cells assessed as nuclear accumulation of Notch 1 intracellular domain (N1ICD) after 24 hrs by ELISA. It is filed as cell-based. The conditions noted are these: A2780, 24 h.
Assay [15] can be described thus: Inhibition of gamma-secretase mediated cleavage of Notch 1 in human K562 cells assessed as nuclear accumulation of Notch 1 intracellular domain (N1ICD) after 24 hrs by ELISA. It is filed as cell-based. To be noted: K562, 24 h.
Assay [16] can be described thus: Inhibition of gamma-secretase mediated cleavage of Notch 1 in human DLD1 cells assessed as nuclear accumulation of Notch 1 intracellular domain (N1ICD) after 24 hrs by ELISA. It is filed as cell-based. The conditions noted are these: DLD-1, 24 h.
Assay [17] is described as follows: Inhibition of gamma-secretase mediated cleavage of Notch 1 in human SUP-T1 cells assessed as nuclear accumulation of Notch 1 intracellular domain (N1ICD) after 24 hrs by ELISA. It is filed as cell-based. To be noted: SUP-T1, 24 h.

For `C[C@H](NC(=O)CCC(F)(F)F)C(=O)N[C@@H]1C(=O)N(CCO)c2ncccc2-c2ccccc21` [CRENIGACESTAT], the IC50 was determined as 0.39 nM in [1]; 0.76 nM in [2]; 0.48 nM in assay [3]; 0.74 nM in assay [4]; 0.23 nM in assay [5]; 0.71 nM in assay [6]. Further, the IC50 in assay [7] was determined as 0.41 nM; in assay [8] it was 0.61 nM; in [9] it was 0.5 nM; in assay [10] it was 0.1 nM; in [11] it was 0.72 nM; in [12], 0.28 nM. For the same molecule, the IC50 was 5.95 nM in [13]; 1.03 nM in assay [14]; 0.74 nM in [15]; 0.98 nM in assay [16]; 1.24 nM in assay [17].
